Drawing on ChEMBL document CHEMBL1126029, “Definition and display of steric, hydrophobic, and hydrogen-bonding properties of ligand binding sites in proteins using Lee and Richards accessible surface: validation of a high-resolution graphical tool for drug design” (J Med Chem, 1992), this text covers Ki for 7 compounds.

This assay has as its target T1, Thermolysin (Bacillus thermoproteolyticus, UniProt P00800).
T1 sequence (P00800 whole entry): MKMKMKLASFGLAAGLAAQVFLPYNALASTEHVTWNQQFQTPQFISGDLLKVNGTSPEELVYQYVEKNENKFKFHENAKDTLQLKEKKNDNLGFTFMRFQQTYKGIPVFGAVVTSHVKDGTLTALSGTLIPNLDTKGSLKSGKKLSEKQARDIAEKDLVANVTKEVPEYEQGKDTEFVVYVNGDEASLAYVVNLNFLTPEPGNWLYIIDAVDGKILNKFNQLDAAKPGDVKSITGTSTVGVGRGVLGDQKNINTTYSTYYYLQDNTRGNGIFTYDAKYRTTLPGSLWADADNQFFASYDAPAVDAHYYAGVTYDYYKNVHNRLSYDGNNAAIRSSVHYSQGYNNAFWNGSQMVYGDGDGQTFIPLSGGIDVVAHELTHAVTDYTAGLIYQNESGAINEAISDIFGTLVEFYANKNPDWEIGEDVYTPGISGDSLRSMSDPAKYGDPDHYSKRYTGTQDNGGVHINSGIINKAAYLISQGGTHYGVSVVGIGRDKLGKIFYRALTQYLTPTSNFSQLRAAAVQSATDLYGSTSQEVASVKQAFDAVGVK
Briefly: Inhibitory constant against thermolysin.
Compound `CC(C)C[C@H](NC(=O)[C@H](CC(C)C)NC(=O)CN(C(=O)OCc1ccccc1)P(=O)(O)O)C(=O)O` registered a Ki of 9.1 nM.

Compound `CC(C)C[C@H](NC(CCCc1ccccc1)C(=O)O)C(=O)N[C@@H](Cc1c[nH]c2ccccc12)C(=O)O` (some centres not stated) came in with a Ki of 50 nM. Compared with the last compound, the Ki is about 5.5-fold higher.

In turn, `O=C(O)CC(=O)N[C@@H](CS)Cc1ccccc1` came in with a Ki of 2300 nM.

The compound `C[C@H](NC(=O)C(CS)Cc1ccccc1)C(=O)NCC(N)=O` (some centres not stated) returned a Ki of 750 nM.

In turn, `CC(C)C[C@H](NP(=O)(O)O)C(N)=O` came in with a Ki of 21300 nM.

`CC(C)C[C@H](NP(=O)(O)O[C@@H]1O[C@@H](C)[C@H](O)[C@@H](O)[C@H]1O)C(=O)N[C@@H](Cc1c[nH]c2ccccc12)C(=O)O` [PHOSPHORAMIDON]: the Ki was 28 nM.

`O=C(O)CNC(=O)C(CS)Cc1ccccc1` (configuration not stated) [THIORPHAN]: the affinity, expressed as Ki, was 1800 nM.
